{"source": "patent US20260365662A1", "about": "“ISOANDROGRAPHOLIDE ANALOGS AND METHOD FOR TREATMENT USING THE SAME” (Enveda Therapeutics, Inc., priority 2023, published 2026)", "key": {"mice [1]": {"system": "mice", "experiment": "Chlorhexidine gluconate-induced peritoneal fibrosis model", "type": "in vivo, mouse", "details": "10, 30, 100 mpk, 0.1% CG, Day 22", "experimental": "From Day 1 to Day 21, 0.1% w/w of chlorhexidine gluconate (CG) in water was administered, every other day, to the mice by PO to induce peritoneal fibrosis. From Day 1 to Day 21, mice were treated with Compound 1 or an inhibitor of TGFβ receptor I (ALK5) (SB525334). At Day 22, the mice were euthanized.\nFIGS. 9A and 9B illustrate the effect of Compound 1 at 10, mpk, 30, mpk, and 100 mpk as compared to sham control, 0.1% chlorhexidine gluconate (CG) and vehicle, and an inhibitor of TGFβ receptor I (ALK5) (SB525334) at 30 mpk (comparative), and mesalamine at 50 mpk (comparative) on average peritoneal thickness and α-SMA expression in a mouse model of peritoneal fibrosis."}, "mice [2]": {"system": "mice", "experiment": "Imiquimod (IMQ) psoriasis mouse model", "type": "in vivo", "details": "30 mpk P.O., BID, 5% imiquimod, Day 0 to Day 7", "experimental": "From Day 0 to Day 7, 5% w/w of imiquimod (IMQ) in water was administered to the mice by PO to induce psoriasis. From Day 0 to Day 7, mice were treated with Compound 1, clobetasol, or dexamethasone. At Day 7, the mice were euthanized.\nFIGS. 10A and 10B illustrate the effect of Compound 1 at 30 mpk (P.O., BID) as compared to naive control, vehicle control, 0.05% clobetasol, and dexamethasone at 1 mpk (P.O., QD) on psoriasis in a mouse model. The graphs show the changes in ear thickness and Psoriasis Area and Severity Index (PASI) score over time."}, "mice [3]": {"system": "mice", "experiment": "DSS mouse model of colitis", "type": "in vivo", "details": "30 mpk, 2% DSS, Day 8", "experimental": "From Day-3 to Day 8, mice were treated with Compound 1, fingolimod, or mesalamine. From Day-3 to Day 0, mice were randomized and acclimated to their environment while assessing a disease activity index (DAI). At Day 1, 2% w/w of DSS in water was administered to the mice by PO. From Day 1 to Day 7, DAI continued to be assessed. At Day 8, the mice were euthanized post the final dose of Compound 1, fingolimod, or mesalamine.\nFIGS. 8A-8D present the efficacy of Compound 1 at 30 mpk as compared to vehicle control, DSS control, fingolimod at 1 mpk (comparative), and mesalamine at 50 mpk (comparative) in a DSS mouse model of colitis. The graphs show the effect of Compound 1 on disease activity index, stool consistency, rectal bleeding index, and combined histopathology."}, "mice [4]": {"system": "mice", "experiment": "Bleomycin-induced pulmonary fibrosis model, prophylactic and treatment groups (Example 3)", "type": "in vivo, mouse", "experimental": "Prophylactic group (P): At Day 0, prophylactic treatment of mice (P) with Compound 1 or pirfenidone by PO was performed. From Day 0 to Day 20, the prophylactically treated mice (P) were intratracheally instilled with bleomycin. At Day 21, the mice (P) were euthanized.\nTreatment group (T): Likewise, from Day 0 to Day 7, naïve mice (T) were intratracheally instilled with bleomycin. At Day 7, the naïve mice were treated with Compound 1. Bleomycin instillation continued to Day 20. At Day 21, the mice (T) were euthanized.\nFIGS. 2A-2D and FIGS. 3A-3G illustrate the therapeutic effects of Compound 1 at 10 mpk (P), 30 mpk (P), 100 mpk (P), and 100 mpk (T), as compared to a normal control, treatment-free control (bleomycin), and pirfenidone (comparative) at 100 mpk (P) in a bleomycin-induced model of pulmonary fibrosis."}, "mice [5]": {"system": "mice", "experiment": "MC903-induced atopic dermatitis mouse model (Example 11)", "type": "in vivo", "details": "3, 10, 30 mpk PO, BID, MC903, Day 14", "experimental": "From Day 1 to Day 14, 2 nmol in 100% ethanol, 50 μl/mouse/back skin (MC903) was administered every other day to mice to induce atopic dermatitis. From Day 1 to Day 14, mice were treated with Compound 1 or clobetasol. At Day 14, the mice were euthanized.\nFIGS. 11A-11C illustrate the effects of Compound 1 at 3 mpk, 10 mpk, and 30 mpk (PO, BID) as compared to normal control, vehicle control, and 0.05% clobetasol (topical, QD) (comparative) on atopic dermatitis in a mouse model."}, "human neutrophils [6]": {"system": "human neutrophils", "experiment": "IL-8 induced neutrophil chemotaxis", "type": "cell-based", "details": "for IC50: IL-8 (2 nM)", "experimental": "(§1) Freshly isolated healthy human neutrophils were isolated and utilized. The neutrophils were treated with IL-8 at 2 nM or fMLP at 100 nM to induced chemotaxis.\n(§2) FIGS. 7A and 7B display the percentage of inhibition of 2 nm of IL-8 induced chemotaxis at different compound concentrations of Compound 3 as compared to Navarixin (comparative). FIGS. 7C and 7D display the percentage of inhibition of 100 nm fMLP induced chemotaxis at different compound concentrations of Compound 3 as compared to HCH6-1 (comparative). Table 3 below provides the IC50 values for each stimulus, providing a comparative measure of the compounds' efficacy."}, "mice [7]": {"system": "mice", "experiment": "Bleomycin-induced pulmonary fibrosis model, prophylactic, 21 days (Example 2)", "type": "in vivo, mouse", "details": "PO, Day 21", "experimental": "At Day 0, prophylactic treatment of mice with Compound 3 or pirfenidone by PO was performed. From Day 0 to Day 20, the prophylactically treated mice were intratracheally instilled with bleomycin. At Day 21, the mice were euthanized.\nAs depicted in FIGS. 1A-1F, a series of bar graphs illustrate the reduction in fibrotic symptoms in a bleomycin-induced pulmonary fibrosis model upon treatment with Compound 3 at 1 mpk, 3 mpk, 10 mpk, and 100 mpk as compared to a normal control, treatment-free control (bleomycin), and pirfenidone (comparative) at 100 mpk. Parameters such as collagen deposition, collagen accumulation, collagen fiber formation, inflammatory cytokine expression, and inflammatory cell infiltration were measured."}, "mice [8]": {"system": "mice", "experiment": "Bleomycin-induced inflammation and cell counts, 10 days (Example 5)", "type": "in vivo, mouse", "details": "3, 10, 30 mpk PO, Day 10", "experimental": "At Day 0, prophylactic treatment of mice with Compound 3 or pirfenidone by PO was performed. From Day 0 to Day 9, the prophylactically treated mice were intratracheally instilled with bleomycin. At Day 10, the mice were euthanized.\nAs shown in FIGS. 5A-5G, the impact of Compound 3 at 3 mpk, 10 mpk, and 30 mpk as compared to normal control, treatment-free control (bleomycin), and pirfenidone (comparative) at 100 mpk on various cell counts associated with inflammation was evaluated. The bar graphs compare alveolar macrophage counts, neutrophil counts, lymphocyte counts, inflammation score, eotaxin (BALF), INFγ (lung), and IL-6 (lung)."}, "human neutrophils [9]": {"system": "human neutrophils", "experiment": "fMLP induced neutrophil chemotaxis", "type": "cell-based", "details": "for IC50: fMLP (100 nM), Donor 1", "experimental": "as §1, §2"}, "[10]": {"system": "human precision-cut lung slices", "experiment": "Inflammation and fibrosis biomarkers in human precision-cut lung slices", "type": "cell-based", "details": "5 μM and 50 uM, hPCLS", "experimental": "Cryopreserved human precision-cut lung slices (hPCLS) were prepared and used to analyze biomarkers in inflammatory and fibrotic models. Information of the donors that provided the hPCLS is provided below.\nFIGS. 6A-6D illustrate the dose-dependent impact of Compound 3 at 5 μM and 50 uM as compared to vehicle control, nintedanib at 2.5 μM (comparative), and pirfenidone at 2.5 uM (comparative) on biomarkers associated with inflammation and fibrosis in human pulmonary cells."}, "mice [11]": {"system": "mice", "experiment": "LPS-induced acute lung injury model (Example 4)", "type": "in vivo, mouse", "details": "30 mpk PO, aerosolized LPS 1 mg/mL, 4 hours", "experimental": "At time point −1 hour, prophylactic treatment of mice by PO with Compound 3 or dexamethasone was performed. From time point −0.5 hours to 0 hours, neutrophil activation was induced with aerosolized LPS at 1 mg/mL. At timepoint 4 hours, blood, BALF, and lung tissue were harvested.\nFIGS. 4A-4G present the effects of Compound 3 at 30 mpk as compared to naive control, treatment-free control (LPS), and dexamethasone (comparative) at 5 mpk on inflammatory cytokines in a lipopolysaccharide (LPS)-induced acute lung injury model. The bar graphs compare the levels of TNF-α, IL-6, IL-36γ, Total cell count (BALF), neutrophils (BALF), neutrophils (blood), and eosinophils (BALF), MIP-2."}, "[12]": {"details": "10, 30, 100 mpk (P) and 100 mpk (T), bleomycin"}}, "note": "Non-standard residues stand in square brackets, D forms with d. Residues, ends and D or L forms follow the SMILES beside them. *: point of attachment. Bz = O=C(c1ccccc1)*", "data": [{"smiles": "C[C@@]1(C#N)[C@H](O)CC[C@]2(C)[C@@H]1CC[C@@]1(C)O[C@H](C3=CCOC3=O)C[C@@H]21", "note": "[Compound 1, (2S,3aR,5aS,6R,7R,9aR,9bS)-7-hydroxy-3a,6,9a-trimethyl-2-(2-oxo-2,5-dihydrofuran-3-yl) dodecahydronaphtho[2,1-b]furan-6-carbonitrile]", "values": [{"measurement": "average peritoneal thickness", "setting": "mice [1]", "value": "reduction"}, {"measurement": "α-SMA expression", "setting": "mice [1]", "value": "reduction"}, {"measurement": "skin condition", "setting": "mice [2]", "value": "improvements in skin condition"}, {"measurement": "symptoms (ear thickness, PASI score)", "setting": "mice [2]", "value": "reduction in symptoms"}, {"measurement": "symptoms of colitis, such as weight loss and increased disease severity", "setting": "mice [3]", "value": "effectively mitigate the symptoms of colitis"}, {"measurement": "Ashcroft score", "setting": "mice [4]; [12]", "value": "lower the Ashcroft score"}, {"measurement": "hydroxyproline content", "setting": "mice [4]; [12]", "value": "reduce hydroxyproline content"}, {"measurement": "inflammatory cell infiltration in lung tissue", "setting": "mice [4]; [12]", "value": "decrease inflammatory cell infiltration"}, {"measurement": "fibrosis and lung tissue morphology (histology)", "setting": "mice [4]; H&E staining, 100× magnification, compared to control", "value": "reduced fibrosis and improved lung tissue morphology"}, {"measurement": "dermatitis severity", "setting": "mice [5]", "value": "decrease in dermatitis severity"}, {"measurement": "skin thickness", "setting": "mice [5]", "value": "decrease"}]}, {"smiles": "C[C@@]12CCC(=O)N[C@@](C)(C#N)[C@H]1CC[C@@]1(C)O[C@H](C3=CCOC3=O)C[C@@H]21", "note": "[Compound 3, (2S,3aR,5aS,6R,10aR,10bS)-3a,6,10a-trimethyl-8-oxo-2-(2-oxo-2,5-dihydrofuran-3-yl) dodecahydro-2H-benzofuro[5,4-c]azepine-6-carbonitrile]", "values": [{"measurement": "IC50", "setting": "human neutrophils [6]; Homo sapiens, Neutrophil, All donors", "value": 2060, "unit": "nM"}, {"measurement": "IC50", "setting": "human neutrophils [6]; Homo sapiens, Neutrophil, Donor 1", "value": 1410, "unit": "nM"}, {"measurement": "IC50", "setting": "human neutrophils [6]; Homo sapiens, Neutrophil, Donor 2", "value": 3160, "unit": "nM"}, {"measurement": "IC50", "setting": "human neutrophils [6]; Homo sapiens, Neutrophil, Donor 3", "value": 1620, "unit": "nM"}, {"measurement": "inhibition of neutrophil chemotaxis", "setting": "human neutrophils [6]; induced by IL-8 at 2 nM", "value": "concentration-dependent inhibition"}, {"measurement": "collagen accumulation", "setting": "mice [7]", "value": "notable decrease"}, {"measurement": "collagen deposition", "setting": "mice [7]", "value": "notable decrease"}, {"measurement": "collagen fiber formation", "setting": "mice [7]", "value": "notable decrease"}, {"measurement": "inflammatory cell infiltration", "setting": "mice [7]", "value": "notable decrease"}, {"measurement": "inflammatory cytokine expression", "setting": "mice [7]", "value": "notable decrease"}, {"measurement": "inflammation and cell counts", "setting": "mice [8]", "value": "reduction in inflammation and cell counts"}, {"measurement": "IC50", "setting": "human neutrophils [9]; Homo sapiens, Neutrophil", "value": 798, "unit": "nM"}, {"measurement": "inhibition of neutrophil chemotaxis", "setting": "human neutrophils [9]; induced by fMLP at 100 nM", "value": "concentration-dependent inhibition"}, {"measurement": "IL-6 level", "setting": "[10]", "value": "corresponding decrease"}, {"measurement": "IL-8/CXCL8 level", "setting": "[10]", "value": "corresponding decrease"}, {"measurement": "MCP-1/CCL-2 level", "setting": "[10]", "value": "corresponding decrease"}, {"measurement": "cytokine levels", "setting": "mice [11]", "value": "dose-dependent reduction in cytokine levels"}]}, {"smiles": "COC(=O)[C@@H](Cc1ccccc1)NC(=O)[C@H](Cc1c[nH]c2ccccc12)NC(=O)c1ccccc1", "note": "[HCH6-1, reference compound] (Bz-Trp-[dF]-OMe)", "values": [{"measurement": "IC50", "setting": "human neutrophils [9]", "value": 452, "unit": "nM"}]}, {"smiles": "CC[C@@H](Nc1c(Nc2cccc(C(=O)N(C)C)c2O)c(=O)c1=O)c1ccc(C)o1", "note": "[Navarixin, reference compound]", "values": [{"measurement": "IC50", "setting": "human neutrophils [6]; All donors", "value": 2360, "unit": "nM"}, {"measurement": "IC50", "setting": "human neutrophils [6]; Donor 1", "value": 1230, "unit": "nM"}, {"measurement": "IC50", "setting": "human neutrophils [6]; Donor 2", "value": 2690, "unit": "nM"}, {"measurement": "IC50", "setting": "human neutrophils [6]; Donor 3", "value": 3160, "unit": "nM"}]}]}
